{
  "source": "patent US5073571A",
  "about": "“Method of inhibiting virus” (priority 1989, dated 1991)",
  "tested_on": "MoMLV",
  "assay": "MoMLV replication: LZ1 virus titer by histochemical staining of NIH 3T3 cells for β-galactosidase",
  "format": "cell-based, Maloney murine leukemia virus",
  "settings": "up to 100 μM, 2 day treatment of LZ1 cells",
  "source_text": "Panel A -Schematic representation of the MoMLV assay system. […] This cell produces infectious, replication defective virus (designated (LZ1) which carries the LacZ gene. When NIH3T3 cells are exposed to supernatant taken from the LZ1 virus producing cells, they are initially infected and their progeny are detectable by histochemical staining for β-galactosidase. Thus, the titer of the virus produced by the LZ1 cells after treatment with the various agents, can be readily determined by counting the number of blue NIH3T3 cells. Replication competent MoMLV is not detected using this assay system since the lacZ gene product is not present. Panel B - The effect of 6-oxamyristic acid and 13-oxamyristic acid on LZ1 virus production. The results represent the mean (+1 standard deviation) of three independent tests each done in duplicate. Panel C - Number of viable LZ1 producing cells at the end of a 2 day treatment with analog as measured by trypan blue exclusion. The results of duplicate assays were averaged. Panel D - The effects of analog treatment on incorporation of [^3 H]leucine. Cells in duplicate wells were pulse labeled for 4 h following three days of incubation with analog or ethanol (0.1%). Duplicate assays were performed. The results were averaged and expressed as a percentage of the results obtained from untreated cells.\nAssay of the Effects of Analogs on the Replication of Maloney Murine Leukemia Virus. The LZ1 titer assay was developed for rapid histochemical quantitation of infectious virus production. In brief, the LZ1 virus-producing cell line was derived by Sanes et al., EMBO J. 5, 3133-3142 (1986), from the .PSI.-2 cell line. .PSI.-2-cells are NIH 3T3 cells that contain a stably integrated packaging mutant (pMOV-.PSI.-) of MoMLV. This mutant has a deletion of 350 nucleotides between the 5' donor splice site for env and the initiator methionine codon for Pr65^gag [Mann et al., Cell 33, 153-159 (1983)]. The LZ1 cell line is a subclone of .PSI.-2 cells that were co-transfectd with pM-MuLV-SV-LacZ [Sanes et al., supra.]and pSVTK neoB and then selected for G418 (Geneticin®) antibiotic resistance and production of defective MoMLV containing the E. coli β-galactosidase gene [Sanes et al., supra.]. The recombinant virus produced by LZ1 cells is capable of primary infection of NIH 3T3 cells but is replication defective [Sanes et al., surpa.]. Infected NIH 3T3 containing the lac-Z gene can be identified by histochemical staining for β-galactosidase activity.\nTo assess the effects of analog treatment on MoMLV replication, 1 × 10^5 LZ1 producing cells were added to each well of a 24-well tissue culture plate in 1 mL of Dulbecco's Modified Eagle's medium (DME) containing calf serum (final concentration =10%), penicillin (100 IU/mL), streptomycin (100 μg/mL) with or without analog (10-100 μM). After 24 h, the media was removed and fresh serum-containing media ±analog was added. The next day (48 hours after plating), the virus containing supernatant was removed and passed through a 0.2 μm filter. Various size aliquots (25-100 μL of the 1 mL filtrate) were added to 1 × 10^4 NIH 3T3 cells contained in 1 mL of DME/10% calf serum/penicillin/streptomycin. These indicator cells had been plated 24 h earlier in 24 well tissue culture plates. Polybrene (Sigma) was added at the same time as the filtrate so that its final concentration was 10 μg/mL. […]",
  "data": [
    {"smiles": "COCCCCCCCCCCCC(=O)O", "note": "[13-oxamyristate, 12-(Methoxy)dodecanoic acid]", "values": [
      {"measurement": "effect on MoMLV replication", "result": "no effect on virus replication"}
    ]}
  ]
}
